These are literature values, as cited in US20110091544A1 (priority 2009, published 2011).

Where two headings read alike, the source gives them in different places.

One data set concerns patients. To be noted: 7.5 mg; at 30 and 60 min after administration.
The subject of data set [1] is children scheduled for day surgery.
In the next data set the test system is acute seizures. To be noted: nasal.
The test system of data set [2] is pediatric patients undergoing outpatient surgery. To be noted: in vivo.
For data set [3] the following is noted: 0.2 mg/kg; 30 min after premedication; children.
The test system of another data set is healthy children. Conditions: oral 0.025 mg/kg, children aged 6 to 9 years.
Data set [4] relates to healthy young subjects and healthy elderly subjects. Conditions: 125 mcg and 250 mcg.
Assay in data set [5]: not given
The source holds these as a separate data set.

The test system of data set [6] is 61-70 year old patients scheduled for ophthalmic surgery. To be noted: 200 mcg sublingual.
Assay in data set [7]: not given
The source holds these as a separate data set.

The next data set concerns dental outpatients. To be noted: in vivo.
For data set [8] the following is noted: 250 mcg or 375 mcg sublingual.

On to `Cc1ncc2n1-c1ccc(Cl)cc1C(c1ccccc1F)=NC2` [midazolam, 8-chloro-6-(2-fluorophenyl)-1-methyl-4H-imidazo[1,5-a][1,4]benzodiazepine], for which the “sedation scores, sublingual group versus oral group” value in the data set with patients is “higher”. In data set [1] (0.25 mg/kg sublingual, P=0.02), the “children showing satisfactory sedation at 15 min after administration” value (shortened to “children showing satisfactory sedation”) is recorded as 28%. Besides, the “children showing satisfactory sedation” value in [1] (0.5 mg/kg sublingual, P<0.001) was 52%. Also, the “children showing satisfactory sedation” value in [1] (0.75 mg/kg sublingual, P<0.001) is given as 64%. Moreover, the “treatment of acute seizures” value in the data set with acute seizures was “effective”. Where the note is “15 mg oral dose”, the maximum plasma concentrations is 70 to 120 ng/mL and the “time to maximum plasma concentrations” value is recorded as “within one hour”. For the same molecule, where the note is “adults greater than 60 years”, the “prolongation of plasma half-life” value is reported as “up to 3 times”. Also, the plasma half-life (orally administered) is 1.5 to 5 h. Also, the oral bioavailability result (with a broad range) is reported as “approximately 36%”. In data set [2], the “children who had not previously cried who cried on administration” value was 71% and the “patients who experienced nasal irritation” value is reported as 20 patients. In addition, in data set [3], the “midazolam level, sublingual group versus nasal group” value is reported as “statistically significantly higher”.

As for `Cc1nnc2n1-c1ccc(Cl)cc1C(c1ccccc1Cl)=NC2` [triazolam, 8-chloro-6-(o-chlorophenyl)-1-methyl-4H-s-triazolo-[4,3-alpha][1,4]benzodiazepine], the “time to peak plasma concentration” value with healthy children is 74 ± 25 min. Besides, in the data set on healthy children (mean+/−SD), the peak plasma concentration is 8.5 ± 3.0 ng/mL. The “sedation and psychomotor performance, healthy elderly versus young persons at the same dose” value in [4] was “greater degree of sedation and greater impairment of psychomotor performance”. Also, in [5] (500 mcg oral), the elimination half-life was 3.7 h, the “mean total area under the curve” value is 22.6 ng·h/mL, the peak plasma concentration was 3.9 ng/mL and the “time of peak concentration” value was 1.25 h. In data set [5] (500 mcg sublingual), the elimination half-life was 4.1 h, the “mean total area under the curve” value was 28.9 ng·h/mL, the peak plasma concentration is 4.7 ng/mL and the “time of peak concentration” value is 1.22 h. Also, the “bioavailability greater than oral” value in data set [5] (500 mcg sublingual versus oral, average) is reported as 28%. Moreover, in data set [6], the “depth of sedation compared with 10 mg oral diazepam” value is “deeper sedation” and the “time at which sedation developed after administration” value was 60 to 90 min. Also, the “increase in Cmax” value in [7] (elderly versus young adults) is 50%. Also, in [7] (no change elderly versus young adults), the time to peak (Tmax) is 54 min. Moreover, in [7] (orally administered), the plasma half-life is 1.5 to 5.5 h. Further, the “higher peak plasma level” value in data set [7] (sublingual compared with oral administration) was 20%. Further, in the data set on dental outpatients, the higher bioavailability is 28%. For the same molecule, the “anxiety and pain at 15 minutes intraoperatively” value in the data set on dental outpatients (po) was “significantly less anxiety and pain”. Besides, in [8] (children), the “Cmax, range” value was 4.0 to 8.2 ng/mL; the “Tmax, range” value was 30 to 120 min; the “elimination half-life, range” value is 51 to 140 min. Besides, the Cmax in [8] (children 64-98 months old, mean+/−SD) is 4.9 ± 2.0 ng/mL. Besides, in [8] (children, mean+/−SD), the Tmax is 75 ± 32 min and the elimination half-life was 91 ± 32 min.

One may read the Tmax as the time at which the peak concentration occurs. Usually Cmax stands for the peak of the concentration-time curve.
